How the values were obtained:
Assay type in all cases: functional
[1] = Cytotoxicity against human OVCAR3 cells at 10 uM after 48 hrs by SRB assay; conditions: OVCAR-3, 48 h, read-out: GI
SN12C = test: Cytotoxicity against human SN12C cells at 10 uM after 48 hrs by SRB assay; conditions: read-out: GI
[2] = Cytotoxicity against human SNB75 cells at 10 uM after 48 hrs by SRB assay; conditions: SNB-75, 48 h, read-out: GI
[3] = Cytotoxicity against human SF539 cells at 10 uM after 48 hrs by SRB assay; conditions: SF-539, 48 h, read-out: GI
[4] = Cytotoxicity against human RXF393 cells at 10 uM after 48 hrs by SRB assay; conditions: RXF 393, 48 h, read-out: GI
[5] = Cytotoxicity against human Hs 578T cells at 10 uM after 48 hrs by SRB assay; conditions: read-out: GI
[6] = Cytotoxicity against human DU145 cells at 10 uM after 48 hrs by SRB assay; conditions: DU-145, 48 h, read-out: GI
[7] = Cytotoxicity against human MOLT4 cells at 10 uM after 48 hrs by SRB assay; conditions: MOLT-4, 48 h, read-out: GI
A498 = test: Cytotoxicity against human A498 cells at 10 uM after 48 hrs by SRB assay; conditions: A498, 48 h, read-out: GI
NCI-H322M = test: Cytotoxicity against human NCI-H322M cells at 10 uM after 48 hrs by SRB assay; conditions: read-out: GI
NCI-H226 = test: Cytotoxicity against human NCI-H226 cells at 10 uM after 48 hrs by SRB assay; conditions: NCI-H226, 48 h, read-out: GI
A549 = test: Cytotoxicity against human A549 cells at 10 uM after 48 hrs by SRB assay; conditions: A549, 48 h, read-out: GI
SR = test: Cytotoxicity against human SR cells at 10 uM after 48 hrs by SRB assay; conditions: read-out: GI
NCI-H522 = test: Cytotoxicity against human NCI-H522 cells at 10 uM after 48 hrs by SRB assay; conditions: NCI-H522, 48 h, read-out: GI
CCRF-CEM = test: Cytotoxicity against human CCRF-CEM cells at 10 uM after 48 hrs by SRB assay; conditions: read-out: GI
Malme-3M = test: Cytotoxicity against human MALME-3M cells at 10 uM after 48 hrs by SRB assay; conditions: read-out: GI
786-0 = test: Cytotoxicity against human 786-0 cells at 10 uM after 48 hrs by SRB assay; conditions: 786-0, 48 h, read-out: GI
[8] = Cytotoxicity against human SF268 cells at 10 uM after 48 hrs by SRB assay; conditions: SF-268, 48 h, read-out: GI
[9] = Cytotoxicity against human COLO205 cells at 10 uM after 48 hrs by SRB assay; conditions: COLO 205, 48 h, read-out: GI
M14 = test: Cytotoxicity against human M14 cells at 10 uM after 48 hrs by SRB assay; conditions: M14, 48 h, read-out: GI
[10] = Cytotoxicity against human SKOV3 cells at 10 uM after 48 hrs by SRB assay; conditions: SK-OV-3, 48 h, read-out: GI
[11] = Cytotoxicity against human SW620 cells at 10 uM after 48 hrs by SRB assay; conditions: SW-620, 48 h, read-out: GI
[12] = Cytotoxicity against human LOXIMVI cells at 10 uM after 48 hrs by SRB assay; conditions: LOX IMVI, read-out: GI
HT-29 = test: Cytotoxicity against human HT-29 cells at 10 uM after 48 hrs by SRB assay; conditions: HT-29, 48 h, read-out: GI
[13] = Cytotoxicity against human OVCAR5 cells at 10 uM after 48 hrs by SRB assay; conditions: OVCAR-5, 48 h, read-out: GI
K562 = test: Cytotoxicity against human K562 cells at 10 uM after 48 hrs by SRB assay; conditions: K562, 48 h, read-out: GI
[14] = Cytotoxicity against human IGROV1 cells at 10 uM after 48 hrs by SRB assay; conditions: IGROV-1, 48 h, read-out: GI

With `Cc1nc2ccc(Nc3nc(NCCN)nc(Nc4ccc(F)cc4)n3)cc2n1Cc1ccccc1` the inhibition of growth at 10 µM [1] was 6.85%, the inhibition of growth at 10 µM (SN12C) was 24.8% and the inhibition of growth at 10 µM [2] was 20%. It also gave an inhibition of growth at 10 µM [3] of 0.19%, an inhibition of growth at 10 µM [4] of 25.8% and an inhibition of growth at 10 µM [5] of 20.5%. It also gave an inhibition of growth at 10 µM [6] of 8.56%, an inhibition of growth at 10 µM [7] of 40.7% and an inhibition of growth at 10 µM (A498) of 25.5%. For the same compound, the inhibition of growth at 10 µM (NCI-H322M) was 7.76%, the inhibition of growth at 10 µM (NCI-H226) was 13.8% and the inhibition of growth at 10 µM (A549) was 13.2%. It also gave an inhibition of growth at 10 µM (SR) of 88.9%, an inhibition of growth at 10 µM (NCI-H522) of 31% and an inhibition of growth at 10 µM (CCRF-CEM) of 51.9%. The inhibition of growth at 10 µM (Malme-3M) was 26%, the inhibition of growth at 10 µM (786-0) was 20.5% and the inhibition of growth at 10 µM [8] was 19.2%. It also gave an inhibition of growth at 10 µM [9] of 33.6%, an inhibition of growth at 10 µM (M14) of 16.4% and an inhibition of growth at 10 µM [10] of 13.2%. For the same compound, the inhibition of growth at 10 µM [11] was 1.71%, the inhibition of growth at 10 µM [12] was 30% and the inhibition of growth at 10 µM (HT-29) was 55.5%. It also gave an inhibition of growth at 10 µM [13] of 6.17%, an inhibition of growth at 10 µM (K562) of 61.3% and an inhibition of growth at 10 µM [14] of 0.38%.
